One series concerns the target NF-κB (human) (UniProt Q04206). Description: cell-based or functional assay.
For series [1], the system named is J89Δvpu cells. The note with it: 96 hrs, proportion of Zombie NIR-/activated Caspase 3- cells against concentration.
Description: (§1) Latency reactivation was traced by quantifying the proportion of HIV-1-GFP+ cells. […] The treatment of J89Δvpu cells with increasing concentrations of sulfasalazine was measured at 96 hrs. Cells shown are gated on viable cells (Zombie NIR- gate) and on negative activated caspase 3 to exclude any apoptotic or dead cell. […] (B) NF-κB inhibitor, sulfasalazine, was added at several concentrations to the J89Cas9AVpu cell line and the proportion of GFP- cells (latent) was measured by flow cytometry at 96 hrs. (gating strategy: (A): FSC/SSC → Zombie NIR- → HIV-1-GFP. (B) FSC/SSC → Zombie NIR negative → Caspase 3 active negative → HIV-1-GFP).
In series [2] the test system is J89Δvpu cells. Description: cells. The note with it: 96 h, read-out: EC50 for HIV-1 latency re-establishment.
Description: as §1
The next series concerns J89. Nature of the series: SM111 treatment of latent J89 cells, latency reversal as HIV-1-GFP+ cells. In kind it is cell-based. The note with it: 100 µM, several consecutive passages, HIV-1-GFP+ cells by flow cytometry (Figure 7A). The protocol:
All results were depicted as medians ± IQR. […].
For SM111 treatment, the HIV-1 latent Jurkat cell line, J89, was treated with SM111 compound, a Vpu-inhibitor, SM113, a negative compound, and DMSO for several consecutive passages. 1x10^6 cells were plated and treated with 100 µM of all compounds for 4 days. Then, one fourth (25%) of the cells were passaged into new media containing the respective treatment and the rest were used to measure HIV-1 latency reactivation (GFP) and cell viability. An untreated control well was kept as internal negative control.
In general terms: A flow cytometer gives signals particle by particle.

Chain of NF-κB (human) (Q04206 whole entry): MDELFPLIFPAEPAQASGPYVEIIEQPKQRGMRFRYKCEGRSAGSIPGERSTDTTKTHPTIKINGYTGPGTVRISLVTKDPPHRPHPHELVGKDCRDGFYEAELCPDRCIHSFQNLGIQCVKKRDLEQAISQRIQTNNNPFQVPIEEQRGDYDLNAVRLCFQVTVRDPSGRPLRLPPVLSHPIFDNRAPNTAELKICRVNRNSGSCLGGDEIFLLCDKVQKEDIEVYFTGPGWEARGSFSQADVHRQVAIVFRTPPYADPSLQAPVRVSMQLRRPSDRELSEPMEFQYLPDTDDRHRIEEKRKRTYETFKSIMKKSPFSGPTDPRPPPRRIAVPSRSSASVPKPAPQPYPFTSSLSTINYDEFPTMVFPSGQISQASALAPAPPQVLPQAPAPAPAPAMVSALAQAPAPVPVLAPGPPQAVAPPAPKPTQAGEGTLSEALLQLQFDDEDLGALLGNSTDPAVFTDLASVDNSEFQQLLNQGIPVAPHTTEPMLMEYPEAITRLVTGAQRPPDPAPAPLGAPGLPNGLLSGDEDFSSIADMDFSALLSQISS

In the series with NF-κB (human), “HIV-1 Vpu protein (strain 89.6), wild type” had an activation of NF-κB in a dual luciferase reporter assay (HEK293T, constitutively active IKKβ, increasing amounts of Vpu expression plasmid), EC50 of 5.2 ng.

In the case of `O=C(O)c1cc(/N=N/c2ccc(S(=O)(=O)Nc3ccccn3)cc2)ccc1O` [sulfasalazine], the LD50 in the series with J89Δvpu cells [1] is greater than 0.50 mM. Besides, in the series on J89Δvpu cells [2], the EC50 is 400 µM.

As for `N=C(N)NC(=O)c1cccnc1N1CCCCCC1` [SM111, 1-(2-(azepan-1-yl)nicotinoyl)guanidine], the “reversal of HIV-1 latency” value with J89 is “able to reverse HIV-1 latency”.

Consider HIV-1 89.6 Vpu R45K mutant, for which, in the series with NF-κB (human), the activation of NF-κB in a dual luciferase reporter assay (HEK293T, constitutively active IKKβ, increasing amounts of Vpu expression plasmid), EC50 was greater than 38 ng.

One may read the EC50 as the concentration giving half of the maximal effect.
